From patent publication US10537626B2, “HSP70-derived peptide, pharmaceutical composition for treating or preventing cancer using same, immunity inducer, and method for producing antigen presenting cell” (Cytlimic Inc., priority 2014, dated 2020)
Ends that are not written are not given here.

Tests used:
[1] = biological target: T1, HLA-A*02:06 molecule (Homo sapiens, UniProt P04439, D140Y/D185E/D98H/E176V/E277Q/F33Y/G131W/G231S/I119V/I121R/I166T/I218V/L300P/L318F/N151K/N90K/P208A/P217A/Q86G/Q94H/R138H/R169H/T345S); experiment: Binding experiment of peptide to HLA-A*02:06 molecule (RA2.6 cells, flow cytometry); conditions: for Binding Experiment Data To A*02:06: RA2.6 cells, negative values as printed (apparently log Kd)
T1 construct: expressed in transfected cells; host or cells: RA2.6 cells (mouse TAP-deficient RMAS transfected with HLA-A*02:06 cDNA, Kochi University)
Procedure: The binding capacity of each peptide to the HLA-A*02:06 molecule as the product of HLA-A*02:06 gene was measured using RA2.6 cells (a cell line newly prepared at Kochi University) in which cDNA of the HLA-A*02:06 gene was introduced into RMAS as a mouse TAP (transporter associated with antigen processing)-deficient cell line.
First, the RA2.6 cells were cultured overnight at 26° C. to accumulate the HLA-A*02:06 molecules unbound to the peptide on the cell surface. Any of peptide dilution series was added thereto for binding at 26° C. for 60 minutes.
Subsequently, the mixture was cultured at 35° C. for 4 hours, resulting in the denaturation of the empty HLA-A*02:06 molecule unbound to the peptide and the loss of its steric structure. A fluorescent labeled monoclonal antibody, BB7.2, specifically recognizing a peptide-bound HLA-A*02:06 molecule, was added thereto, which was then incubated on ice for 20 minutes to stain the cells.

[2] = biological target: HLA-A*02:01 molecule (Homo sapiens, UniProt P04439, D140Y/D185E/D98H/E176V/E277Q/G131W/G231S/I119V/I121R/I166T/I218V/L300P/L318F/N151K/N90K/P208A/P217A/Q86G/Q94H/R138H/R169H/T345S); experiment: Binding experiment of peptide to HLA-A*02:01 molecule (T2 cells, flow cytometry); conditions: for Binding Experiment Data To A*02:01: T2 cells, 37° C. 4 hours, negative values as printed (apparently log Kd)
Procedure: T2 cells and purified β2m were added to stepwise dilution series of a peptide whose binding capacity was to be measured, which was then incubated at 37° C. for 4 hours.
Thereafter, the amount of fluorescence per cell was measured using a flow cytometer, and the dissociation constant, Kd value, was calculated using a method as published in a paper by the present inventor (Udaka et al., Immunogenetics, 51, 816-828, 2000).

[3] = biological target: HLA-A*24:02 molecule (Homo sapiens, UniProt P04439, D101N/D140Y/D185E/E176V/E190D/F33S/G103R/G107R/I119L/I121M/I306V/K335N/L105A/L180Q/L300P/N151K/N90K/Q86E/Q94H/R106L/R138H/R89G/T104I/T345S/V100E/W191G/Y123F); experiment: Binding experiment of peptide to HLA-A*24:02 molecule (C1R-A24 cells, flow cytometry); conditions: for Binding Experiment Data To A*24:02: C1R-A24 cells, on ice 4 hours, negative values as printed (apparently log Kd)
Procedure: The binding capacity of each peptide to the HLA-A*24:02 molecule as the product of HLA-A*24:02 gene was measured using C1R-A24 cells expressing the HLA-A*24:02 molecule (the cells prepared by Prof. Masafumi Takeguchi, Kumamoto University were gifted by Assoc. Prof. Masaki Yasukawa, Ehime University with permission).
First, C1R-A24 cells were exposed to acidic conditions of pH 3.3 for 30 seconds to dissociate and remove endogenous peptides which were originally bound to the HLA-A*24:02 molecule and a light chain, β2m, which was commonly associated with HLA class I molecules. After neutralization, purified β2m was added to the C1R-A24 cells, which was then added to peptide dilution series. The mixtures were each then incubated on ice for 4 hours. The 3-molecule assembly (MHC-pep) consisting of the HLA-A*24:02 molecule, the peptide, and β2 m which had been reassociated during the incubation was stained with a fluorescent labeled monoclonal antibody, 17A12, recognizing the assembly.
Subsequently, the number of MHC-pep's per C1R-A24 cell (which is proportional to the fluorescent intensity of the above fluorescent antibody) was quantitatively measured using a fluorescent cell analyzer, FACScan (Becton, Dickinson and Company). The binding dissociation constant, Kd value, between the HLA-A*24:02 molecule and the peptide was calculated from the average fluorescent intensity per cell using a method as published in a paper (Udaka et al., Immunogenetics, 51, 816-828, 2000) by the present inventor.

[4] = test system: CD8T cells from liver cancer patients; experiment: Immunity induction test of peptide (IFN-γ ELISPOT / ELISA, peptide-stimulated dendritic cells cocultured with CD8T cells); format: cell-based, human
Procedure: Monocytes were separated from the peripheral blood collected from a hepatocellular cancer patient according to a leukapheresis method. The separated monocytes were cultured for 6 days under addition of 800 U/ml GM-CSF and 500 U/ml IL-4. In addition, 300 U/ml TNF-α was added to the culture solution, which was then cultured for 4 days to induce mature dendritic cells. Subsequently, HSP70 mRNA was introduced thereinto by an electroporation method and thereby dendritic cells having presented an HSP70-derived antigen peptide were prepared.
Dendritic cells into which 1×10^7, 2×10^7, or 3×10^7 HSP70 mRNAs were introduced (HSP70-dendritic cells) were administered into the thigh of the hepatocellular cancer patient by subcutaneous injection (HSP70 dendritic cell therapy). The subcutaneous administration of the HSP70-dendritic cells prepared by the same method was repeated every 3 weeks. […]
Using CD8 Negative Selection Kit (from Miltenyi Biotec), CD8T cells were separated from the medium and counted. […]
A culture supernatant at day 7 after coculture of T cells with dendritic cells pulsed with each of the above peptides was diluted to the 4 levels of ×1, ×5, ×25, and ×125 to identify the dilution level falling within the limit of measurement using Human IFN-γ ELISA MAX Deluxe Set (from BioLegend Inc.). Thereafter, each sample was measured 3 times at the identified dilution level. […]

Row | Sequence | Binding Experiment Data To A*02:06 [1] | Binding Experiment Data To A*02:01 [2] | Binding Experiment Data To A*24:02 [3] | other results
1 | YAFNMKSAV [SEQ ID NO: 13] | −5.021 | −5.091 |  | 
2 | MVLTKMKEI [SEQ ID NO: 6] | −5.533 | −4.586 |  | 
3 | ITRARFEEL [SEQ ID NO: 10] | −5.58 | −4.326 |  | 
4 | AMTKDNNLL [SEQ ID NO: 9] | −4.276 | −5.56 | −5.492 | 
5 | VLVGGSTRI [SEQ ID NO: 5] | −5.07 | −4.86 | −6.173 | 
6 | KLLQDFFNG [SEQ ID NO: 4] | −5.268 | −4.959 |  | 
7 | NLLGRFELS [SEQ ID NO: 11] | −5.175 | −4.56 |  | 
8 | YGAAVQAAI [SEQ ID NO: 7] | −5.372 | −4.904 | −5.502 | immunogenicity (in words) [4]: high immunogenicity; binding to HLA-A*02:06 molecule (in words) [1]: strongly binds; binding to HLA-A*02:01 molecule (in words) [2]: strongly binds; binding to HLA-A*24:02 molecule (in words) [3]: strongly binds
9 | NQPGVLIQV [SEQ ID NO: 14] | −6.417 | −5.91 |  | 
10 | LLLDVAPLS [SEQ ID NO: 8] | −6.171 | −6.06 |  | 
11 | AQIHDLVLV [SEQ ID NO: 12] |  | −6.148 |  | 
12 | GVPQIEVTF [SEQ ID NO: 1] | −5.13 |  | −6.451 | 
13 | FYPEEISSM [SEQ ID NO: 3] |  |  | −7.664 | 
14 | SVTNAVITV [SEQ ID NO: 15] | −5.594 | −4.762 | −4.37 | 
